# Measured values: US20220135564A1, “DEUTERATED MITRAGYNINE ANALOGS AS SAFER OPIOID MODULATORS IN THE MITRAGYNINE CLASS” (The Trustees of Columbia University in the City of New York, priority 2019, published 2022)
# What was measured:
# [1] = Pharmacokinetics in C57BL/6 mice, plasma and brain metabolite concentrations; details: male C57BL/6 mice, 10 mg/kg s.c., 0.083-24 h
# Method: Animals. Healthy male C57BL/6 mice (8-12 weeks old) weighing between 19 to 28 g were procured from Global, India. Four mice were housed in each cage. Temperature and humidity were maintained at 22±3° C. and 30-70%, respectively and illumination was controlled on a 12-h light/dark cycle. Temperature and humidity were recorded by an auto-controlled data logger system. All animals were provided a laboratory rodent diet (Envigo Research Private Ltd, Hyderabad, India) and reverse osmosis water treated with ultraviolet light was provided ad libitum.
# Drugs. Mitragynine and 3-DM were dissolved in normal saline made slightly acidic (˜pH 3) with 1M aqueous HCl. Drugs were administered subcutaneously at a volume of 10 mL/kg body weight and a dose of 10 mg/kg.
# Pharmacokinetics. Blood samples (approximately 60 μL) were collected under light isoflurane anesthesia from the retro orbital plexus at 0.083, 0.25, 0.5, 1, 2, 4, 8 and 24 h (4 animals per time point). Plasma samples were separated by centrifugation of whole blood and stored below −70° C. until bioanalysis. Immediately after collection of blood, mice were euthanized and brain samples were collected at 0.083, 0.25, 0.5, 1, 2, 4, 8 and 24 h (4 animals per time point). Brain samples were homogenized using ice-cold phosphate buffered saline (pH 7.4) and homogenates were stored below −70° C. until analysis. Total homogenate volume was three times the tissue weight. Aliquots (25 μL) of each study sample (dilution factor applied for several samples) or spiked calibration standard were added to individual micro-centrifuge tubes followed by 100 μL of internal standard solution prepared in acetonitrile (Glipizide, 500 ng/mL; except for blank, where 100 μL of acetonitrile was added). Samples were vortexed for 5 minutes and then centrifuged for 5 minutes at a speed of 4000 rpm at 4° C. Following centrifugation, supernatants were analyzed for metabolites DHM (both mitragynine and 3-DM treatment) and 7-OH (mitragynine treatment) or 3-d-7-OH (3-DM treatment), using a fit-for-purpose liquid chromatography-tandem mass spectrometry (LC-MS/MS) method, with authentic samples of each analyte used for calibration and identification.
# [2] = Mouse brain homogenate (MBH) stability and metabolite formation; format: in vitro ADME; details: 2 μM, 37° C., over 120 minutes
# Method: MBH Preparation. Male BALB/c mice (12-14 weeks old) were housed in polypropylene cages with free access to standard commercial food pellets and tap water. Animals were sacrificed by cervical dislocation immediately prior to brain homogenate preparation. Brains from 10 mice were fragmented into small pieces and homogenized in ice-cold artificial cerebrospinal fluid solution (ACSF: 126 mM NaCl, 2.68 mM KCl, 1 mM Na2HPO4, 0.88 mM MgSO4, 22 mM NaHCO3, 1.45 mM CaCl2, 10 mM HEPES, 11 mM D-glucose, pH 7.4) using a TH-01 OMNI homogenizer. Samples were centrifuged at 1500×g for 10 minutes. Supernatants were decanted and collected. Total protein concentration was determined by Bradford assay and equaled 17.7 mg/mL. The obtained brain homogenate was flash-frozen in liquid nitrogen. Aliquots were stored at −70° C. until use.
# MBH Stability and Metabolite Formation. […] The incubation medium consisted of artificial cerebrospinal fluid solution (ACSF: 126 mM NaCl, 2.68 mM KCl, 1 mM Na2HPO4, 0.88 mM MgSO4, 22 mM NaHCO3, 1.45 mM CaCl2, 10 mM HEPES, 11 mM D-glucose, pH 7.4) with 2 mg of brain protein per mL. Test compounds (2 μM, final solvent concentration 1%) were incubated with brain homogenate at 37° C., shaking at 100 rpm. Incubations were performed in duplicate. Six time points over 120 minutes were analyzed.
# [3] = MS9 metabolite formation (M1, M4, M6) from mitragynine and 3-DM; format: in vitro ADME, mouse; details: 2 μM, 37° C., over 60 minutes, MS peak area, compared to mitragynine
# Method: MS9 Metabolite Formation. Liver S9 fraction pooled from male CD-1 mice was used. […] Control incubations were performed replacing the cofactor system with phosphate buffer. […] Incubations were performed in duplicate. Five time points over 60 minutes were analyzed. […] Supernatants were analyzed for remaining parent compound and metabolites by liquid chromatography-tandem mass spectrometry (LC-MS/MS).
# [4] = Pharmacokinetics in 129S1 mice, brain metabolite concentrations at 15 minutes; details: male 129S1 mice, 10 mg/kg s.c.
# HLM metabolite formation = details: 2 μM, 37° C., over 40 minutes
# Method: HLM Metabolite Formation. Pooled HLM from 50 adult male and female donors (XenoTech H0630, lot 1610016) were used. Microsomal incubations of mitragynine and 3-DM were carried out in 96-well plates in 5 aliquots of 40 μL each (one for each time point). Liver microsomal incubation medium contained PBS (100 mM, pH 7.4), MgCl2 (3.3 mM), NADPH (3 mM), glucose-6-phosphate (5.3 mM), glucose-6-phosphate dehydrogenase (0.67 units/mL) with 0.42 mg of liver microsomal protein per ml. Control incubations were performed replacing the NADPH-cofactor system with PBS. Test compounds (2 μM, final solvent concentration 1.6%) were incubated with microsomes at 37° C., shaking at 100 rpm. Incubations were performed in duplicate. Five time points over 40 minutes were analyzed. The reactions were stopped by adding 8 volumes of 90% acetonitrile-water to incubation aliquots, followed by protein sedimentation by centrifugation at 5500 rpm for 3 minutes. Supernatants were analyzed for parent compound remaining and metabolites DHM (both mitragynine and 3-DM incubations), 7-OH (mitragynine incubations), and 3-d-7-OH (3-DM incubations), using a fit-for-purpose liquid chromatography-tandem mass spectrometry (LC-MS/MS) method, with authentic samples of each analyte used for calibration and identification.
# Male Sprague-Dawley rats = test: Rat tail-flick assay (analgesic activity); format: in vivo; details: oral gavage, 50° C. hot-water bath, 30 minutes after administration
# Method: Animals. Male Sprague-Dawley rats, aged 7-8 weeks, were used in experiments. Animals were housed under controlled temperatures and 12-hour light/dark cycles (lights on at 06:00-18:00 h), with ad libitum food and water. The study was approved by the Institutional Animal Care and Use Committee (IACUC) at WuXi AppTec (Shanghai). WuXi's animal facilities and IACUC are fully accredited by the Association for Assessment and Accreditation of Laboratory Animal Care International (AAALAC). All efforts were made to minimize animal suffering.
# Drugs and Drug Administration. Drugs were prepared as described above and administered by oral gavage at a volume of 5 mL/kg in de-ionized water acidified with acetic acid.
# Tail-Flick. Analgesic activity was assessed in the tail-flick assay 30 minutes (peak effect) after administration of vehicle and each dose of drug (n=8 per treatment). Animals were tested for their latency to withdraw their tails from a hot water bath maintained at 50° C. with a room temperature of 22° C. A cutoff time of 7 seconds was used to prevent tissue damage. Data were analyzed as percent maximal effect, % MPE, which was calculated according to the formula: % MPE=[(observed latency−vehicle latency)/(maximal latency−vehicle latency)]×100. Dose-response curves were fit by nonlinear regression (GraphPad Prism, La Jolla, Calif.).
# [5] = Stability and metabolite formation in dog plasma; format: in vitro ADME; details: 1 μM, 37° C., over 120 minutes
# Method: Stability and Metabolite Formation in Dog Plasma. Beagle dog plasma with Na citrate (Innovatine Research, Inc., lot #IBG-NaCitrate-28323) was used in this study. Plasma incubations were carried out in 5 aliquots of 70 μL each (one for each time point), in duplicate. Test compounds (1 μM, final DMSO concentration 1%) were incubated at 37° C. with shaking at 100 rpm. Five time points over 120 minutes were analyzed. The reactions were stopped by adding 400 μL of acetonitrile-methanol mixture (1:1) with subsequent plasma protein sedimentation by centrifugation at 5500 rpm for 5 minutes.
# [6] = Simulated gastric fluid (SGF) incubations monitored by NMR; format: physicochemical; details: deuterated SGF, 1.3 mg/mL, room temperature
# Method: SGF Incubations. Deuterated SGF (to permit direct NMR monitoring of the reactions) was prepared by combining NaCl (10 mg) and 37% DCl in D2O (35 μL) and diluting up to a final volume of 5.0 mL with D2O. Solutions of 7-OH and 3-d-7-OH in deuterated SGF were prepared at a concentration of 1.3 mg/mL containing N-methyl-2-pyrrolidone (NMP) as an internal standard (IS) at a concentration of 3.33 μL/mL and the reaction mixtures were left to stand at room temperature. NMR spectra were recorded on a Bruker 500 MHz instrument at the following time points: 35, 65, 125, 245, 365, and 1440 minutes (relative to time of solution mixing). Chemical shifts were referenced to the D2O residual solvent peak at 4.79 ppm. Decomposition of parent compounds was quantified by the peak area ratio of a doublet at 6.63 ppm (corresponding to 7-OH and 3-d-7-OH) and a singlet at 2.84 ppm (corresponding to IS). These ratios, calculated at each time point, were normalized to the ratio determined at 35 minutes to obtain values as percent remaining (100% at 35 minutes). Concentration of DHM was determined at each time point by comparing the peak areas of a doublet at 6.70 ppm (corresponding to DHM) and a singlet at 2.84 ppm (corresponding to IS) and using the known concentration of internal standard (3.33 μL/mL=34.5 mM). The concentration of DHM formed from 3-d-7-OH was below the lower limit of quantitation of -0.1 mM at the 35-, 65-, and 125-minute time points.
# [7] = compared to 7-OH from mitragynine
# [8] = 35-1440 minutes, compared to 7-OH
smiles,measurement,setting,value
"[2H][C@@]12C[C@H](/C(=C\OC)C(=O)OC)[C@H](CC)CN1CCc1c2[nH]c2cccc(OC)c12 [3-DM, 3-Deuteromitragynine]",brain concentration of active metabolite 3-d-7-OH,[1]; [7],no effect
same,plasma concentration of active metabolite 3-d-7-OH,[1]; [7],no effect
same,brain concentration of DHM,[1]; compared to mitragynine,greatly attenuated
same,plasma concentration of DHM,[1]; compared to mitragynine,greatly attenuated
same,decomposition of parent compound in MBH,[2],attenuated the decomposition
same,formation of DHM in MBH,[2]; compared to mitragynine,attenuated formation of DHM
same,formation of metabolite M1 in MS9,[3],greatly attenuated
same,formation of metabolite M4 in MS9,[3],greatly attenuated
same,formation of metabolite M6 in MS9,[3],greatly attenuated
same,brain concentration of 7-hydroxy active metabolite (3-d-7-OH),[4]; [7],little effect
same,brain concentration of DHM,[4]; compared to mitragynine,greatly attenuated
same,formation of 7-hydroxy active metabolite (3-d-7-OH) in HLMs,HLM metabolite formation; [7],little effect
same,concentration of toxic metabolite DHM formed in HLMs,HLM metabolite formation; compared to mitragynine,greatly attenuated
same,analgesic effect in the tail-flick assay,Male Sprague-Dawley rats,dose-dependent analgesic effects
"CC[C@@H]1CN2CC[C@@]3(O)C(=Nc4cccc(OC)c43)[C@@H]2C[C@@H]1/C(=C\OC)C(=O)OC [7-OH, 7-Hydroxymitragynine, reference compound]",decomposition of parent compound in dog plasma,[5],unstable
"[2H][C@@]12C[C@H](/C(=C\OC)C(=O)OC)[C@H](CC)CN1CC[C@@]1(O)C2=Nc2cccc(OC)c21 [3-d-7-OH, 3-Deutero-7-hydroxymitragynine]",decomposition of parent compound in dog plasma,[5],attenuated the decomposition
same,formation of DHM in dog plasma,[5]; compared to 7-OH,attenuated formation of DHM
same,decomposition of parent compound in SGF,[6]; [8],did not slow decomposition
same,formation of toxic metabolite DHM in SGF,[6]; [8],greatly attenuated
same,concentration of DHM formed in SGF,"[6]; 35-, 65-, and 125-minute time points, below lower limit of quantitation",< -100 µM
CC[C@@H]1CN2CCc3c([nH]c4cccc(OC)c34)[C@@H]2C[C@@H]1/C(=C\OC)C(=O)OC [Mitragynine],decomposition of parent compound in MBH,[2],unstable
same,analgesic effect in the tail-flick assay,Male Sprague-Dawley rats,dose-dependent analgesic effects
